{"source": "patent US11612661B2", "about": "(priority 2019, dated 2023)", "key": {"rat α9α10 nAChR": {"molecular_target": "rat α9α10 nAChR (Rattus norvegicus, UniProt P43144+Q9JLB5)", "sequence (P43144 26-479 limits assumed)": "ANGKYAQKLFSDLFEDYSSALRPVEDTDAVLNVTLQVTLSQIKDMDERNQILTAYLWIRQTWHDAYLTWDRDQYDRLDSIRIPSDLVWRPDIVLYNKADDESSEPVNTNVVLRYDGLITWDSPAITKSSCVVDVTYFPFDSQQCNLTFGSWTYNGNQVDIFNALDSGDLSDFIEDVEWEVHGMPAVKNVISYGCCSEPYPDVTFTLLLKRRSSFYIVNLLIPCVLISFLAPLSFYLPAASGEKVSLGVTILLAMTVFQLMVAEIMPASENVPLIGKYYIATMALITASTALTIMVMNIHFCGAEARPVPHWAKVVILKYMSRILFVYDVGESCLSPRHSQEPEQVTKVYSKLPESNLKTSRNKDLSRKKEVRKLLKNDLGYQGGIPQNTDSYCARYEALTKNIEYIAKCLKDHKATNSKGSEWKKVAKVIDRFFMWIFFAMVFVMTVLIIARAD", "sequence (Q9JLB5 25-447 limits assumed)": "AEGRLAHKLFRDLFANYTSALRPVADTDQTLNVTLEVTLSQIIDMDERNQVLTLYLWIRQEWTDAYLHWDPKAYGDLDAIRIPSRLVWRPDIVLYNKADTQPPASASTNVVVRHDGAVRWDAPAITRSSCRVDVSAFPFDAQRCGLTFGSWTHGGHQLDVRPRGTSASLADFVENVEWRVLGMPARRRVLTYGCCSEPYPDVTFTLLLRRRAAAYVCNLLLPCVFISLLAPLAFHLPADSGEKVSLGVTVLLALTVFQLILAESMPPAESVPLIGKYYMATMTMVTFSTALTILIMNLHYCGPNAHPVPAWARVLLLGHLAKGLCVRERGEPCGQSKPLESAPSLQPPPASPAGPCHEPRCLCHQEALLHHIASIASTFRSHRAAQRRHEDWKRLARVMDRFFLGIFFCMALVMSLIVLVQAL", "assay": "cell-based", "type": "cell-based", "conditions": "α9α10 nAChR IC50 (nM) Rat"}, "human α9α10 nAChR": {"molecular_target": "human α9α10 nAChR (Homo sapiens, UniProt Q9GZZ6+Q9UGM1)", "sequence (Q9UGM1 26-479 limits assumed)": "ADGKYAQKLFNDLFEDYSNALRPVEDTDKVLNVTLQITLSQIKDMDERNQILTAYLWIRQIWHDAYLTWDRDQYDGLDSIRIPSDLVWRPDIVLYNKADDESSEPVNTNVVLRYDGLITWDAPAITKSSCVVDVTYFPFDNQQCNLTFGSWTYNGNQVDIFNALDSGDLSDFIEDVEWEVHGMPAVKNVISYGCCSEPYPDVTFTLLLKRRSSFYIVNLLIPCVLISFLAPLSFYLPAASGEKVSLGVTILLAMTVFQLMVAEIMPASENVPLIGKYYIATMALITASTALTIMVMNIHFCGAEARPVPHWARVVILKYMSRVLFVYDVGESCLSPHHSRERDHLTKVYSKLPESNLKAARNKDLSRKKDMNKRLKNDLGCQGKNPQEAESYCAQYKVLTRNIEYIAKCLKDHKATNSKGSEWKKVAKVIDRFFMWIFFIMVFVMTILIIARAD", "sequence (Q9GZZ6 25-450 limits assumed)": "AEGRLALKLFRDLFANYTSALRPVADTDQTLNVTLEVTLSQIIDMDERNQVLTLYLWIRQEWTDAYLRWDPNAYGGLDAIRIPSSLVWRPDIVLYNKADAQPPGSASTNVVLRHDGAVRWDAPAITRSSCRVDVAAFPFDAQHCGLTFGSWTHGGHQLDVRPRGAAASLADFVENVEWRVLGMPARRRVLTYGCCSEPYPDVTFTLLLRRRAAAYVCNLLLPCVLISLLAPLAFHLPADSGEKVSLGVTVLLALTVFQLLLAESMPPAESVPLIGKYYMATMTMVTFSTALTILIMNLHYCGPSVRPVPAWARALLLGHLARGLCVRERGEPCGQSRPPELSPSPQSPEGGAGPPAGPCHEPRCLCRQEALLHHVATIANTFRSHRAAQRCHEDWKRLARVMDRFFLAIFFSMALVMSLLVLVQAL", "assay": "cell-based", "type": "cell-based"}, "α7 nAChR": {"molecular_target": "α7 nAChR (Homo sapiens, UniProt P36544)", "sequence (P36544 23-502 limits assumed)": "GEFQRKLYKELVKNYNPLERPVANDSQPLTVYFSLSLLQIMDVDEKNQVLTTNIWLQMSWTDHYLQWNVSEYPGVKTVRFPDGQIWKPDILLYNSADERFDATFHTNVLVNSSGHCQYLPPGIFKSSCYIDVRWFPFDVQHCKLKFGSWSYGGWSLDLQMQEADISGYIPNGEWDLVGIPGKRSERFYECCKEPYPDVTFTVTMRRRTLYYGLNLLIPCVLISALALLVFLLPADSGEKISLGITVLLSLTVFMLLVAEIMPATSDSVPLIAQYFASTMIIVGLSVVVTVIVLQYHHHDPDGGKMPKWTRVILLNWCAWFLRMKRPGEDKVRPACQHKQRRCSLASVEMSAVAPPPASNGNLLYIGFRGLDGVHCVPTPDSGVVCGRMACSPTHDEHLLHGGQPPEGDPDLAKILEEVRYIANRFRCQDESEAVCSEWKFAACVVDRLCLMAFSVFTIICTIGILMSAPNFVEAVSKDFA", "conditions": "10 μM; read-out: Partial inhibition of the α7 nAChR"}, "[1]": {"tested_on": "chronic constriction injury (CCI) model", "set-up": "species or system Sprague Dawley rats", "conditions": "rat, in vivo"}, "[2]": {"tested_on": "88 receptors, transporters, enzymes and kinases", "conditions": "10 μM"}}, "note": "Bridge positions count the residues as written; N and C are the ends. Square brackets hold non-standard residues; d marks the D form. Triazole bridges read from a SMILES are 1,4-linked. Peptide text beside a SMILES is read from it. Tyr(3-I) = N[C@@H](Cc1ccc(O)c(I)c1)C(=O)O; Orn(N3) = [N-]=[N+]=NCCC[C@H](N)C(=O)O; Cit = NC(=O)NCCC[C@H](N)C(=O)O; Pra = C#CC[C@H](N)C(=O)O", "data": [{"smiles": "C[C@@H](O)[C@@H]1NC(=O)[C@@H]2Cc3cn(nn3)CCC[C@@H](C(=O)N[C@@H](Cc3ccc(O)cc3)C(N)=O)NC(=O)[C@H](CCC(N)=O)NC(=O)[C@H](Cc3ccc(O)c(I)c3)NC(=O)[C@H](CCCNC(N)=O)NC(=O)[C@H](CSSC[C@H](NC(=O)CN)C(=O)N2)NC(=O)[C@H](CCCNC(=N)N)NC(=O)[C@@H]2CCCN2C(=O)[C@H](CC(=O)O)NC1=O", "note": "[Ib′, L-tyrosinamide, glycyl-L-cysteinyl-L-alanyl-L-threonyl-L-α-aspartyl-L-prolyl-L-arginyl-L-cysteinyl-N5-(aminocarbonyl)-L-ornithyl-L-3-iodotyrosyl-L-glutaminyl-L-norvalyl-cyclic (2→8)-disulfide-cyclic 3^3,12^5-(1H-1,2,3-triazole-4,1-diyl)] (H-GC[Pra]TDPRC[Cit][Tyr(3-I)]Q[Orn(N3)]Y-NH2; disulfide 2-8; triazole 3-12)", "values": [{"measurement": "IC50", "setting": "rat α9α10 nAChR", "value": "2.3 ± 0.5", "unit": "nM"}, {"measurement": "IC50", "setting": "human α9α10 nAChR", "value": "48 ± 9", "unit": "nM"}, {"measurement": "inhibition at 10 µM", "setting": "α7 nAChR", "value": 56, "unit": "%"}, {"measurement": "Paw withdrawal thresholds relative to vehicle-treated control animals", "setting": "[1]", "value": "statistically significant improvement in paw withdrawal thresholds"}, {"measurement": "Off-target effects in panel of 88 receptors, transporters, enzymes and kinases", "setting": "[2]", "value": "no off-target effects"}]}]}
